In PubChem BioAssay (NCI):
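Test compounds were applied to cells in 96-well plates for 48 hours at 5 doses. GI50 = concentration required for 50% inhibition of growth. TGI denotes the concentration required for complete inhibition of growth.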

Columns and labels:
Assay in all cases: NCI anticancer screen, dose series, 48 h
SK-OV-3 ovarian = test system: SK-OV-3 ovarian
RXF 393 renal = test system: RXF 393 renal
IGROV1 ovarian = test system: IGROV1 ovarian
SNB-19 CNS = test system: SNB-19 CNS
UACC-257 melanoma = test system: UACC-257 melanoma
MALME-3M melanoma = test system: MALME-3M melanoma
NCI-H522 lung = test system: NCI-H522 lung
HT29 colon = test system: HT29 colon
MDA-MB-231 breast = test system: MDA-MB-231 breast
UACC-62 melanoma = test system: UACC-62 melanoma
HCT-15 colon = test system: HCT-15 colon
ACHN renal = test system: ACHN renal
UO-31 renal = test system: UO-31 renal
SK-MEL-5 melanoma = test system: SK-MEL-5 melanoma
KM12 colon = test system: KM12 colon
OVCAR-4 ovarian = test system: OVCAR-4 ovarian
MCF7 breast = test system: MCF7 breast
A498 renal = test system: A498 renal
SN12C renal = test system: SN12C renal
DU-145 prostate = test system: DU-145 prostate
HL-60(TB) leukemia = test system: HL-60(TB) leukemia
OVCAR-5 ovarian = test system: OVCAR-5 ovarian
HCT-116 colon = test system: HCT-116 colon
NCI-H460 lung = test system: NCI-H460 lung
T-47D breast = test system: T-47D breast
NCI-H226 lung = test system: NCI-H226 lung
A549 NSCLC = test system: A549 NSCLC
SNB-75 CNS = test system: SNB-75 CNS
HCC-2998 colon = test system: HCC-2998 colon
BT-549 breast = test system: BT-549 breast
U251 CNS = test system: U251 CNS
SW-620 colon = test system: SW-620 colon
HOP-92 NSCLC = test system: HOP-92 NSCLC
HS 578T breast = test system: HS 578T breast
NCI/ADR-RES ovarian = test system: NCI/ADR-RES ovarian
SK-MEL-2 melanoma = test system: SK-MEL-2 melanoma
SK-MEL-28 melanoma = test system: SK-MEL-28 melanoma
OVCAR-3 ovarian = test system: OVCAR-3 ovarian
NCI-H23 lung = test system: NCI-H23 lung
M14 melanoma = test system: M14 melanoma
LOX IMVI melanoma = test system: LOX IMVI melanoma
CCRF-CEM leukemia = test system: CCRF-CEM leukemia
PC-3 prostate = test system: PC-3 prostate
786-0 renal = test system: 786-0 renal
HOP-62 NSCLC = test system: HOP-62 NSCLC
OVCAR-8 ovarian = test system: OVCAR-8 ovarian
TK-10 renal = test system: TK-10 renal
EKVX NSCLC = test system: EKVX NSCLC
MOLT-4 leukemia = test system: MOLT-4 leukemia
SF-539 CNS = test system: SF-539 CNS
CAKI-1 renal = test system: CAKI-1 renal
SR leukemia = test system: SR leukemia
RPMI-8226 leukemia = test system: RPMI-8226 leukemia
SF-268 CNS = test system: SF-268 CNS
SF-295 CNS = test system: SF-295 CNS
COLO 205 colon = test system: COLO 205 colon

COc1cc(-c2nn(-c3ccc(NC(=O)NCCCNC(=O)c4ccccc4)cc3)cc2-c2ccncc2)ccc1Cl
GI50 (SK-OV-3 ovarian): 752 nM | TGI (SK-OV-3 ovarian): > 100000 nM | GI50 (RXF 393 renal): 293 nM | TGI (RXF 393 renal): 917 nM | GI50 (IGROV1 ovarian): 843 nM | TGI (IGROV1 ovarian): > 100000 nM | GI50 (SNB-19 CNS): 846 nM | TGI (SNB-19 CNS): > 100000 nM | GI50 (UACC-257 melanoma): 2370 nM | TGI (UACC-257 melanoma): 23700 nM | GI50 (MALME-3M melanoma): 457 nM | TGI (MALME-3M melanoma): 2880 nM | GI50 (NCI-H522 lung): 231 nM | TGI (NCI-H522 lung): 3100 nM | GI50 (HT29 colon): 378 nM | TGI (HT29 colon): 2160 nM | GI50 (MDA-MB-231 breast): 1140 nM | TGI (MDA-MB-231 breast): > 100000 nM | GI50 (UACC-62 melanoma): 543 nM | TGI (UACC-62 melanoma): 3480 nM | GI50 (HCT-15 colon): 1940 nM | TGI (HCT-15 colon): > 100000 nM | GI50 (ACHN renal): 1640 nM | TGI (ACHN renal): 5300 nM | GI50 (UO-31 renal): 1560 nM | TGI (UO-31 renal): 11300 nM | GI50 (SK-MEL-5 melanoma): 362 nM | TGI (SK-MEL-5 melanoma): 1430 nM | GI50 (KM12 colon): 390 nM | TGI (KM12 colon): 2000 nM | GI50 (OVCAR-4 ovarian): 1000 nM | TGI (OVCAR-4 ovarian): > 100000 nM | GI50 (MCF7 breast): 338 nM | TGI (MCF7 breast): > 100000 nM | GI50 (A498 renal): 467 nM | TGI (A498 renal): 5150 nM | GI50 (SN12C renal): 718 nM | TGI (SN12C renal): > 100000 nM | GI50 (DU-145 prostate): 385 nM | TGI (DU-145 prostate): > 100000 nM | GI50 (HL-60(TB) leukemia): 358 nM | TGI (HL-60(TB) leukemia): 1200 nM | GI50 (OVCAR-5 ovarian): 1100 nM | TGI (OVCAR-5 ovarian): > 100000 nM | GI50 (HCT-116 colon): 361 nM | TGI (HCT-116 colon): 5510 nM | GI50 (NCI-H460 lung): 404 nM | TGI (NCI-H460 lung): 9590 nM | GI50 (T-47D breast): 611 nM | TGI (T-47D breast): 14000 nM | GI50 (NCI-H226 lung): 1470 nM | TGI (NCI-H226 lung): > 100000 nM | GI50 (A549 NSCLC): 3230 nM | TGI (A549 NSCLC): 77600 nM | GI50 (SNB-75 CNS): 1120 nM | TGI (SNB-75 CNS): > 100000 nM | GI50 (HCC-2998 colon): 1210 nM | TGI (HCC-2998 colon): 8810 nM | GI50 (BT-549 breast): 887 nM | TGI (BT-549 breast): 5330 nM | GI50 (U251 CNS): 561 nM | TGI (U251 CNS): 21900 nM | GI50 (SW-620 colon): 455 nM | TGI (SW-620 colon): > 100000 nM | GI50 (HOP-92 NSCLC): 1260 nM | TGI (HOP-92 NSCLC): 8100 nM | GI50 (HS 578T breast): 428 nM | TGI (HS 578T breast): > 100000 nM | GI50 (NCI/ADR-RES ovarian): 3780 nM | TGI (NCI/ADR-RES ovarian): > 100000 nM | GI50 (SK-MEL-2 melanoma): 637 nM | TGI (SK-MEL-2 melanoma): 5220 nM | GI50 (SK-MEL-28 melanoma): 1340 nM | TGI (SK-MEL-28 melanoma): > 100000 nM | GI50 (OVCAR-3 ovarian): 252 nM | TGI (OVCAR-3 ovarian): 647 nM | GI50 (NCI-H23 lung): 665 nM | TGI (NCI-H23 lung): > 100000 nM | GI50 (M14 melanoma): 311 nM | TGI (M14 melanoma): 1840 nM | GI50 (LOX IMVI melanoma): 597 nM | TGI (LOX IMVI melanoma): 8070 nM | GI50 (CCRF-CEM leukemia): 385 nM | TGI (CCRF-CEM leukemia): > 100000 nM | GI50 (PC-3 prostate): 436 nM | TGI (PC-3 prostate): > 100000 nM | GI50 (786-0 renal): 493 nM | TGI (786-0 renal): 2860 nM | GI50 (HOP-62 NSCLC): 460 nM | TGI (HOP-62 NSCLC): > 100000 nM | GI50 (OVCAR-8 ovarian): 635 nM | TGI (OVCAR-8 ovarian): 12700 nM | GI50 (TK-10 renal): 2300 nM | TGI (TK-10 renal): 8010 nM | GI50 (EKVX NSCLC): 1290 nM | TGI (EKVX NSCLC): > 100000 nM | GI50 (MOLT-4 leukemia): 905 nM | TGI (MOLT-4 leukemia): > 100000 nM | GI50 (SF-539 CNS): 266 nM | TGI (SF-539 CNS): 843 nM

COc1ccc2c(=O)c(-c3cc4c(cc3OC)OCO4)coc2c1
TGI (SK-OV-3 ovarian): > 100000 nM | TGI (CAKI-1 renal): > 100000 nM | TGI (IGROV1 ovarian): > 100000 nM | TGI (SNB-19 CNS): > 100000 nM | TGI (UACC-257 melanoma): > 100000 nM | TGI (SR leukemia): > 100000 nM | TGI (NCI-H522 lung): > 100000 nM | TGI (HT29 colon): > 100000 nM | TGI (MDA-MB-231 breast): > 100000 nM | TGI (UACC-62 melanoma): > 100000 nM | TGI (HCT-15 colon): > 100000 nM | TGI (ACHN renal): > 100000 nM | TGI (UO-31 renal): > 100000 nM | TGI (SK-MEL-5 melanoma): > 100000 nM | TGI (KM12 colon): > 100000 nM | TGI (OVCAR-4 ovarian): > 100000 nM | TGI (MCF7 breast): > 100000 nM | TGI (A498 renal): > 100000 nM | TGI (SN12C renal): > 100000 nM | TGI (DU-145 prostate): > 100000 nM | TGI (HL-60(TB) leukemia): > 100000 nM | TGI (OVCAR-5 ovarian): > 100000 nM | TGI (HCT-116 colon): > 100000 nM | TGI (NCI-H460 lung): > 100000 nM | TGI (RPMI-8226 leukemia): > 100000 nM | TGI (T-47D breast): > 100000 nM | TGI (SF-268 CNS): > 100000 nM | TGI (SF-295 CNS): > 100000 nM | TGI (NCI-H226 lung): > 100000 nM | TGI (A549 NSCLC): > 100000 nM | TGI (SNB-75 CNS): > 100000 nM | TGI (HCC-2998 colon): > 100000 nM | TGI (BT-549 breast): > 100000 nM | TGI (U251 CNS): > 100000 nM | TGI (SW-620 colon): > 100000 nM | TGI (HOP-92 NSCLC): > 100000 nM | TGI (HS 578T breast): > 100000 nM | TGI (NCI/ADR-RES ovarian): > 100000 nM | TGI (SK-MEL-2 melanoma): > 100000 nM | TGI (SK-MEL-28 melanoma): > 100000 nM | TGI (OVCAR-3 ovarian): > 100000 nM | TGI (NCI-H23 lung): > 100000 nM | TGI (M14 melanoma): > 100000 nM | TGI (LOX IMVI melanoma): > 100000 nM | TGI (CCRF-CEM leukemia): > 100000 nM | TGI (PC-3 prostate): > 100000 nM | TGI (786-0 renal): > 100000 nM | TGI (HOP-62 NSCLC): > 100000 nM | TGI (OVCAR-8 ovarian): > 100000 nM | TGI (COLO 205 colon): > 100000 nM | TGI (TK-10 renal): > 100000 nM | TGI (EKVX NSCLC): > 100000 nM | TGI (MOLT-4 leukemia): > 100000 nM | TGI (SF-539 CNS): > 100000 nM
